Assays:
[1] = system: increase in intravesical pressure induced by carbachol in anesthetized dog; test: Effect on the increase in intravesical pressure induced by carbachol in anesthetized dog; type: in vivo, Beagle dogs; conditions: intraduodenal administration
Experimental: Effect on the increase in intravesical pressure induced by carbachol in anesthetized dog
Female Beagle dogs weighing 8.0-15.0 kg were fasted for 24 hours and maintained under halothane anesthesia. A 12F Foley catheter was lubricated with water soluble jelly, inserted into the urethral orifice and advanced approximately 10 cm until the balloon tip was placed well inside the bladder. The balloon was then inflated with 5 ml of room air and catheter slowly withdrawn just part the first resistance that is felt at the bladder neck. Urine was completely drained out through the catheter, and 30 ml of biological saline was infused. The catheter was connected to pressure transducer, and intravesical pressure was continuously recorded. Intraduodenal administration of test compound (I) inhibited carbachol (1.8 μg/kg)-induced increase in intravesical pressure (IVP).

Row | SMILES | melting point | % inhibition of carbachol-induced increase in IVP ([1]; 0.32 mg/kg, female Beagle dogs under halothane anesthesia, carbachol 1.8 μg/kg) | carbachol (1.8 μg/kg)-induced increase in intravesical pressure (IVP) ([1]; anesthetized female Beagle dogs)
1 | CCOC(=O)COc1ccc(S(=O)(=O)c2ccc(CCNC[C@H](O)c3cccc(Cl)c3)cc2)cc1.Cl | 198 to 200 °C | – | –
2 | O=S(=O)(c1ccccc1)c1ccc(C[C@@H](CO)NC[C@H](O)COc2ccccc2)cc1 [Test Compound (1), (2S)-2-[((2S)-2-Hydroxy-3-phenoxypropyl)amino]-3-[4-(phenylsulfonyl)phenyl]-1-propanol] | – | 30% | inhibited
